Laboratory results reported in PMC7762498, “Demethoxycurcumin analogue DMC-BH exhibits potent anticancer effects on orthotopic glioblastomas” (Aging (Albany NY), 2020).

What was measured:
U87 cell line = experiment: Subcutaneous human glioma xenograft in SCID mice; format: in vivo
From the text: To examine the anti-glioma effects of DMC-BH in vivo, a human glioma-SCID (severe combined immunodeficient) mouse model was established using the U87 cell line. […] The tumor volumes for the control, TMZ, DMC, and DMC-BH mice at day 21 were 1514 mm^3, 587 mm^3, 876 mm^3 and 570 mm^3, respectively. […] As shown in the Kaplan-Meier curves, the median survival was 15, 27, 19 and 35 days for the control, TMZ, DMC and DMC-BH groups, respectively (Figure 3B).
Figure 3 DMC-BH inhibited U87 glioma cell growth in vivo. Subcutaneous tumors generated from U87 cells were allowed to reach a volume of 150-200 mm^3 and were treated with 20 mg/kg TMZ, DMC or DMC-BH for 21 days. (A) Tumor volume was recorded according to treatment group at the indicated day. (B) The survival of brain tumor-bearing mice was recorded and represented in a Kaplan-Meier plot.
1-[4-Hydroxy-3-(pyrrolidin-1-ylmethyl) phenyl]-7-(4-hydroxy-3-methoxyphenyl) hepta-1,6-diene-3,5-dione, named DMC-BH, was constructed by our lab. DMC was obtained from Sigma-Aldrich (St. Louis, MO). To test the anti-glioma effect of DMC-BH in vivo, a xenograft model of human glioma was established. Four-week-old male SCID mice were purchased from Vital River Laboratory Animal Technology Co., Ltd. (Beijing, China). After a 1-week acclimatization, SCID mice were injected subcutaneously in the right flank with 6 × 10^5 […] glioma cells resuspended in 50 μL DMEM media. Treatment was initiated when the subcutaneous tumors reached an average size of 150 mm^3 to 200 mm^3. Mice received intraperitoneal injection of DMC (20 mg/kg/day), DMC-BH (20 mg/kg/day), TMZ (20 mg/kg/day) or vehicle as a control. Tumor diameter was measured every 2 days with calipers, and the tumor volume was calculated (length × width × height × 0.5). All experiments were carried out in keeping with the procedures and protocols of the Animal Ethics Committee of the First People's Hospital of Kunshan.

[1] = system: glioblastoma multiforme (GBM) patient derived tumors; experiment: Patient-derived tumor xenograft (PDTX) model; format: in vivo, mice; details: B-NDG mice; DMC-BH 7.5, 15 or 30 mg/kg, TMZ 20 mg/kg
From the text: In recent years, PDTX models have been used to mimic human tumors. These models are more clinically relevant than cell line-based xenograft models. Thus, we performed an in vivo study in a PDTX tumor model by implanting human glioma samples from a patient donor into B-NDG mice (Figure 7A).
Figure 7 In vivo anti-tumor activity of DMC-BH in the PDTX tumor model. (A) A scheme illustrating the process of creating the patient-derived tumor model. (B) Tumor growth curves of mice after treatment with 7.5 mg/kg, 15 mg/kg or 30 mg/kg DMC-BH or 20 mg/kg TMZ. (C) Average tumor weight at day 21 after different treatments. (D) Quantification of the Ki67-positive area in different treatment groups. (E) Representative H&E-stained tumor slices and Ki67 immunofluorescence labeled tumor tissue sections from different treatments groups. The data are shown as mean ± SD (n = 6).
Surgically resected human glioma tissue was obtained from a cancer patient (#0407002) following an approved Nanjing Medicinal University Institutional Review Board protocol. Within 2 hours of surgical resection, tumor tissues were cut into 1-2 mm fragments and implanted into SCID mice (B-NDG, 6 weeks old, female) using a surgical procedure approved by Nanjing Medicinal University Institutional Animal Care and Use committee. After surgery, tumor growth in the mice was monitored by palpating the abdomen twice per week. Tumors grew to 5-10 mm in diameter in about 8-10 weeks. The SCID mice bearing PDTX tumors were sacrificed, and tumor fragments of 1 to 2 mm in size were implanted into 6-week-old female SCID mice. Over 60% of the mice experienced tumor growth in approximately 6 weeks.

`Cn1nnc2c(C(N)=O)ncn2c1=O` [TMZ, temozolomide] was tested, and the “tumor volume at day 21” value (U87 cell line; U87 subcutaneous xenograft, 20 mg/kg/day intraperitoneal, 21 days, control 1514 mm^3) was 587 mm^3, the median survival (U87 cell line; U87 xenograft, 20 mg/kg, control 15 days) was 27 days and the “tumor growth in PDTX model” value [1] was “significant tumor regression”.
